Experimental data published in patent publication US5371186A, “Synthetic peptides for detoxification of bacterial endotoxins and for the prevention and treatment of septic shock” (priority 1992, dated 1994).

Key:
[1] = system: trypsin in human serum; test: stability towards proteolysis by trypsin in human serum; type: in vitro ADME
Description: The effects of trypsin present in human serum on Polymyxin "B" and the peptides of invention was determined by combining 10 μl of human serum with 20 μg of the given peptide in 10 μl volume and holding the mixture at a temperature of 37° C. for different intervals of time. At various times, an aliquot of the mixture was processed by HPLC analysis in order to detect the residual amount of the investigated peptide. In Table VI the half-lives time of each peptide investigated are shown as compared to the half-life time of Polymyxin "B".

[2] = stoichiometry of the complexes with LPS by amino acid analysis; type: binding; conditions: 10 μg B. Pertussis LPS (2.64 nmoles Lipid A) + 10 μg peptide
Description: Quantitation of the amount of precipitated peptides present in the complexes with PLS of B. pertussis has been done by amino acid analysis after acid hydrolysis (by 6 M HCl) of the complexes recovered by centrifugation at 3,000 rpm×15 minutes. In Table III, the stoichiometry of some complexes is reported as calculated by the ratio (on molar basis) between the amount of each peptide and the amount of Lipid A present in the structure of LPS used in the experiments:
*Complexes formed between 10 μg of B. Pertussis LPS (equivalent to 4.5
μg of Lipid A of 2.64 nmoles) and 10 μg of peptide (twice the amoun
corresponding to the saturation point found for Polymyxin "B" in the
**Values represent the average of two separate experiments of amino acid
analysis after acid hydrolysis of the recovered complexes.

[3] = prevention of endotoxin-induced death in CD1 mice sensitized with Actinomycin D; type: in vivo, mice (Strain CD1); conditions: 0.1 mg/mouse i.v., 1 μg endotoxin i.p.; for Mice surviving: 20 mice per group
Description: Prevention of endotoxin-induced death in mice, has been achieved by intravenous injection of the peptides of the invention. For this experiment, a strain of mice highly sensitive to the lethal activity of bacterial endotoxin has been used. Mice sensitized with Actinomycin D (Strain CD1) show a high sensitivity to extremely low doses of endotoxin. A dose as low as 1 μg of endotoxin per mouse (about 40 μg/kg of body weight) is able to completely kill a population of mice within 24-48 hours.
Groups of 20 mice CD1 have been treated intravenously with the peptides of the invention, with a single dose of 0.1 mg peptide, solubilized in sterile saline, per mouse. Thirty minutes later, mice were challenged by intraperitoneal injection of 1 μg of endotoxin purified from E. Coli strain 055-B5. Surviving mice were recorded every 24 hours during a seven days-period of observation. […] Negative controls received an intravenous injection of saline.
There were 20 mice per group. Mice surviving at each of the seven 24 hours observation periods are listed. The % survival appears in parenthesis. P expresses the level of statistical significance calculated by "t-Test" for each molecule compared to the treatment with saline, considering the total survival rate in each group.

[4] = system: spleen cells from unimmunized healthy SJL/J mice; test: LPS-induced polyclonal B-cell activation, 3H-thymidine incorporation; type: cell-based; conditions: LPS 50 μg/ml, LPS alone 22,737, non stimulated 2,449 cpm
Description: Cells were cultured in RPMI medium containing 1.0% normal mouse serum at 37° C. for 3 days. Cultures were pulsed with 1.0 μi/well of 3H-thymidine for 16 hours and harvested for counting on an LS betaplate counter. The results were as follows:
cpm measured with non stimulated cultures = 2,449.

[5] = system: Haemophilus influenzae; test: antibiotic activity, zone of inhibition on BHI plates; type: cell-based, H. influenzas; conditions: 18 hours
Description: The following experiments compared the antibiotic activity of Polymyxin "B" with various peptides of the invention.
The tests were performed on BHI plates with liquid cultures of the test organism to give a lawn. Each peptide was diluted in water and placed on sterile Wathmam 3M disks on the surface of the plate. The plates were dried and incubated at 37° C. The zone of inhibition was measured after 18 hours: […]

[6] = Limulus (LAL) test, inhibition of LPS-induced gelation; type: biochemical, B. Pertussis; conditions: LPS/Pept (w/w) 1; LPS 0.1 μg
Excerpt: As a consequence of this high-affinity binding to the Lipid A moiety of endotoxins, most of the synthetic peptide analogs have shown the ability to detoxify endotoxins as evidenced by in vitro as well as in vivo analysis. The in vitro test used, as measure of detoxification, the inhibition of the enzymatic cascade leading to the coagulation of the Lymulus lysate (LAL test) by endotoxin. The LAL test is recognized as the most sensitive and predictive test for the toxic and pyrogenic activity of LPS, since pyrogenicity in vivo is related to the release of the endogenous immune modulators Interleukin-1 (IL-l) and alfa-Tumor necrosis factor (α-TNF), the mediators responsible for the fatalities associated to septic shock. As an in vivo test confirming detoxification of LPS, was then used the Rabbit pyrogen test performed according to the United States Pharmacopeia XXI.
The results obtained by the Limulus (LAL) test, shown in Table V, support the data obtained by measuring the Affinity of the peptides of the invention for the Lipid A moiety of LPS in that they were substantially equivalent to Polymyxin "B" in the inhibition of LPS activity on Limulus. […] Peptide I was, in fact, the one presenting the non complete structure needed for the mimick of Polymyxin "B" as the synthetic peptide analogs II, IV, VI and VII have clearly shown in the previous Table IV. […]

[7] = highest dose tolerated in the mouse when injected alone; type: in vivo; conditions: intravenously
[8] = same species of mice (Swiss Webster); cited from earlier work

Question: What does the source list for Polymyxin "B"?
Answer: stability in the presence of proteolytic enzymes such as trypsin [1]: stable in the presence of trypsin; Half-Life Time (t/2) ([1]; human serum, 37° C.): > 180 min; Ratio peptide/LipA [2]: 1.02 mol/mol; Amount of peptide in the complex ([2]; average of two experiments): 2.69 nmol; % survival ([3]; 24 hs): 50%; Mice surviving ([3]; 24 hs): 10; % survival ([3]; 48 hs): 40%; Mice surviving ([3]; 48 hs): 8; % survival ([3]; 72 hs): 30%; Mice surviving ([3]; 72 hs): 6; % survival ([3]; 96 hs): 30%; Mice surviving ([3]; 96 hs): 6; % survival ([3]; 120 hs): 30%; Mice surviving ([3]; 120 hs): 6; % survival ([3]; 144 hs): 30%; Mice surviving ([3]; 144 hs): 6; % survival ([3]; 168 hs): 30%; Mice surviving ([3]; 168 hs): 6; 3H-thymidine incorporation ([4]; 12.5 μg/ml): 2,366 cpm; 3H-thymidine incorporation ([4]; 25 μg/ml): 3,559 cpm; 3H-thymidine incorporation ([4]; 50 μg/ml): 2,831 cpm; 3H-thymidine incorporation ([4]; 100 μg/ml): 4,128 cpm; Zone (mm) of inhibition H. influenzas ([5]; 0.008 μg/ml): 0 mm; Zone (mm) of inhibition H. influenzas ([5]; 0.04 μg/ml): 0 mm; Zone (mm) of inhibition H. influenzas ([5]; 0.2 μg/ml): 3 mm; Zone (mm) of inhibition H. influenzas ([5]; 1.0 μg/ml): 6 mm; LAL TEST [6]: NEGATIVE; highest dose tolerated in the mouse [7]: 0.1 mg/mouse; LD50 [8]: 2.5 to 5 mg/kg
